Test results published in PMC7023064, “Design, Synthesis, and Evaluation of Novel 2-Methoxyestradiol Derivatives as Apoptotic Inducers through an Intrinsic Apoptosis Pathway” (Biomolecules, 2020).
Where two headings read alike, the source gives them in different places.

Experiments:
[1] = system: human breast adenocarcinoma MCF-7 cell lines; assay: MTT cytotoxicity assay, MCF-7; type: cell-based
Protocol: (§1) Human breast adenocarcinoma MCF-7 cell lines, human breast cancer MDA-MB-231 cell lines, and the normal human liver L-O2 cell lines were provided by Nanjing KeyGen Biotech Co. Ltd. (Nanjing, China). MCF-7 cells were cultured in a base medium (90% RPMI-1640 and 10% FBS) at 37 °C, 5% CO2 and a saturated humidity atmosphere. MDA-MB-231 cells were cultured in a base medium (90% […] and 10% FBS) at 37 °C, 5% CO2 and a saturated humidity atmosphere. L-O2 cells were cultured in a base medium (90% DMEM and 10% FBS) at 37 °C, 5% CO2 and a saturated humidity atmosphere.
(§2) The cytotoxicity of the tested compounds was determined using the 3-(4,5-dimethyl-2-thiazolyl)-2,5-diphenyl-2-H-tetrazolium bromide (MTT) assay. Cells were seeded in 96-well plates and incubated in a 5% CO2 incubator at 37 °C. When the cells adhered, compounds at different concentrations were added to every well. After incubation for another 72 h, MTT solution (5 mg/mL) was added into each well and cells were incubated for an additional 4 h. The viable cells were stained with MTT and scanned with an electrophotometer at 570 nm. Each concentration treatment was done in triplicate wells. The half maximal inhibitory concentration (IC50) values were estimated by fitting the inhibition data to a dose-dependent curve using a logistic derivative equation.

[2] = system: human breast cancer MDA-MB-231 cell lines; assay: MTT cytotoxicity assay, MDA-MB-231; type: cell-based; conditions: mean ± SD of three experiments
Protocol: as §1, §2

[3] = system: normal human liver L-O2 cell lines; assay: MTT cytotoxicity assay, L-O2; type: cell-based; conditions: mean ± SD of three experiments, No = No inhibition detected
Protocol: as §1, §2

[4] = system: MCF-7 and MDA-MB-231 cell lines; assay: MTT assay, summary over tested tumor cells; type: cell-based, human; conditions: for IC50: Homo sapiens, MCF-7 and MDA-MB-231, read-out: IC50, anti-proliferative activity against tested tumor cells
Protocol: as §1, §2

[5] = Homo sapiens, MCF7, MTT, 72 h, mean ± SD of three experiments, read-out: IC50 MCF-7
[6] = Homo sapiens, MCF7, Table 2, mean ± SD of three experiments, read-out: IC50 for MCF-7
[7] = Homo sapiens, MCF7, pIC50 = −log(IC50), read-out: pIC50 for MCF-7 (converted)
[8] = MTT, 72 h, mean ± SD of three experiments, read-out: IC50 MCF-7
[9] = Table 2, mean ± SD of three experiments, read-out: IC50 for MCF-7

## COc1cc2c(cc1OCCCCCCCCn1cc(C)c(=O)n(CCCCCCCCOc3cc4c(cc3OC)[C@H]3CC[C@]5(C)[C@@H](O)CC[C@H]5[C@@H]3CC4)c1=O)CC[C@@H]1[C@@H]2CC[C@]2(C)[C@@H](O)CC[C@@H]12 [Compound 23b, 1,3-bis-{8-[2-Methoxy-17β-Hydroxy-Estra-1,3,5(10)-Triene-3-yl-Oxy]-octyl}-5-Methyl-Uracil]
[1]; [5]
  IC50: > 100 µM
[1]; [6]
  IC50: > 100 µM
[1]; [7]
  IC50: > 100 µM
[2]; Homo sapiens, MDA-MB-231, 72 h
  IC50: > 100 µM
[3]; 72 h
  IC50 L-O2: No
other
  melting point: 75 to 76 °C

## 3-[6-(5-Methyl-Uracil-3-yl)-Hexyloxy]-2-Methoxy-Estra-1,3,5(10)-Triene-17β-ol [Compound 21a]
[1]; [8]
  IC50: 9.97 ± 0.39 µM
[1]; [9]
  IC50: 9.97 ± 0.39 µM
[1]; pIC50 = −log(IC50)
  pIC50 for MCF-7: 5.00
[2]; 72 h
  IC50: 7.34 ± 0.56 µM
[3]; 72 h
  IC50: 28.2 ± 0.57 µM

## 17 β-[6-(5-Methyl-Uracil-3-yl)-Hexyloxy]-2-Methoxy-Estra-1,3,5(10)-Triene-3-ol [Compound 13a]
[1]; [8]
  IC50: 16.6 ± 1.26 µM
[1]; [9]
  IC50: 16.6 ± 1.26 µM
[1]; pIC50 = −log(IC50)
  pIC50 for MCF-7: 4.78
[2]; 72 h
  IC50: 13.3 ± 0.16 µM
[3]; 72 h
  IC50: 51.4 ± 1.47 µM

## 17 β-[8-(5-Methyl-Uracil-3-yl)-Octyloxy]-2-Methoxy-Estra-1,3,5(10)-Triene-3-ol [Compound 15a]
[1]; [8]
  IC50: 12.1 ± 0.45 µM
[1]; [9]
  IC50: 12.1 ± 0.45 µM
[1]; pIC50 = −log(IC50)
  pIC50 for MCF-7: 4.92
[2]; 72 h
  IC50: 19.3 ± 1.54 µM
[3]; 72 h
  IC50: 52.6 ± 1.82 µM

## COc1cc2c(cc1OCCCCCCn1cc(C)c(=O)n(CCCCCCOc3cc4c(cc3OC)[C@H]3CC[C@]5(C)[C@@H](O)CC[C@H]5[C@@H]3CC4)c1=O)CC[C@@H]1[C@@H]2CC[C@]2(C)[C@@H](O)CC[C@@H]12 [Compound 21b, 1,3-bis-{6-[2-Methoxy-17β-Hydroxy-Estra-1,3,5(10)-Triene-3-yl-oxy]-Hexyl}-5-Methyl-Uracil]
[1]; [5]
  IC50: 28.4 ± 1.76 µM
[1]; [6]
  IC50: 28.4 ± 1.76 µM
[1]; [7]
  IC50: 28.2 µM
[2]; Homo sapiens, MDA-MB-231, 72 h
  IC50: 23.8 ± 1.45 µM
[3]; Homo sapiens, L02, 72 h
  IC50: > 100 µM
[4]
  IC50: ~25 µM
[4]; MCF-7 and MDA-MB-231 vs L-O2
  selectivity towards cancerous cell lines vs healthy cell line: about 4 fold
other
  melting point: 79 to 81 °C

## O=c1[nH]cc(F)c(=O)[nH]1 [Compound 5-FU, reference compound]
[1]; [8]
  IC50: 8.87 ± 0.59 µM
[2]; 72 h
  IC50: 61.9 ± 2.23 µM
[3]; 72 h
  IC50: > 100 µM

## COc1cc2c(cc1OCCCCCCCCn1ccc(=O)n(CCCCCCCCOc3cc4c(cc3OC)[C@H]3CC[C@]5(C)[C@@H](O)CC[C@H]5[C@@H]3CC4)c1=O)CC[C@@H]1[C@@H]2CC[C@]2(C)[C@@H](O)CC[C@@H]12 [Compound 22b, 1,3-Bis-{8-[2-Methoxy-17β-Hydroxy-Estra-1,3,5(10)-Triene-3-yl-Oxy]-Octyl}-Uracil]
[1]; [5]
  IC50: > 100 µM
[1]; [6]
  IC50: > 100 µM
[1]; [7]
  IC50: > 100 µM
[2]; Homo sapiens, MDA-MB-231, 72 h
  IC50: > 100 µM
[3]; 72 h
  IC50 L-O2: No
other
  melting point: 74 to 76 °C

## COc1cc2c(cc1OCCCCCCCCn1c(=O)ccn([C@@H]3O[C@H](CO)[C@@H](O)[C@H]3O)c1=O)CC[C@@H]1[C@@H]2CC[C@]2(C)[C@@H](O)CC[C@@H]12 [Compound 19, 3-[8-(1-β-D-Ribofuranosyluracil-3-yl)-Octyloxy]-2-Methoxy-Estra-1,3,5(10)-Triene-17β-ol]
[1]; [5]
  IC50: 7.87 ± 0.42 µM
[1]; [6]
  IC50: 7.87 ± 0.42 µM
[1]; [7]
  IC50: 7.94 µM
[2]; Homo sapiens, MDA-MB-231, 72 h
  IC50: 10.44 ± 0.07 µM
[3]; Homo sapiens, L02, 72 h
  IC50: 32.8 ± 0.65 µM
[4]
  IC50: 3.89 to 16.7 µM
other
  melting point: 93 to 95 °C

## 3-[8-(5-Methyl-Uracil-3-yl)-Octyloxy]-2-Methoxy-Estra-1,3,5(10)-Triene-17β-ol [Compound 23a]
[1]; [8]
  IC50: 8.75 ± 0.22 µM
[1]; [9]
  IC50: 8.75 ± 0.22 µM
[1]; pIC50 = −log(IC50)
  pIC50 for MCF-7: 5.06
[2]; 72 h
  IC50: 12.7 ± 0.22 µM
[3]; 72 h
  IC50: 25.5 ± 1.86 µM

## 17 β-[8-(Uracil-3-yl)-Octyloxy]-2-Methoxy-Estra-1,3,5(10)-Triene-3-ol [Compound 14a]
[1]; [8]
  IC50: 9.22 ± 0.21 µM
[1]; [9]
  IC50: 9.22 ± 0.21 µM
[1]; pIC50 = −log(IC50)
  pIC50 for MCF-7: 5.04
[2]; 72 h
  IC50: 8 ± 0.41 µM
[3]; 72 h
  IC50: 17.5 ± 0.69 µM

## 3-[6-(Uracil-3-yl)-Hexyloxy]-2-Methoxy-Estra-1,3,5(10)-Triene-17β-ol [Compound 20a]
[1]; [8]
  IC50: 17.9 ± 0.22 µM
[1]; [9]
  IC50: 17.9 ± 0.22 µM
[1]; pIC50 = −log(IC50)
  pIC50 for MCF-7: 4.75
[2]; 72 h
  IC50: 14 ± 1.69 µM
[3]; 72 h
  IC50: 38.5 ± 1.87 µM

## COc1cc2c(cc1O)CC[C@@H]1[C@@H]2CC[C@]2(C)[C@@H](OCCCCCCCCn3cc(C)c(=O)n(CCCCCCCCO[C@H]4CC[C@H]5[C@@H]6CCc7cc(O)c(OC)cc7[C@H]6CC[C@]45C)c3=O)CC[C@@H]12 [Compound 15b, 1,3-bis-{8-[2-Methoxy-3-Hydroxy-Estra-1,3,5(10)-Triene-17β-yl-oxy]-Octyl}-5-Methyl-Uracil]
[1]; [5]
  IC50: > 100 µM
[1]; [6]
  IC50: > 100 µM
[1]; [7]
  IC50: > 100 µM
[2]; Homo sapiens, MDA-MB-231, 72 h
  IC50: > 100 µM
[3]; 72 h
  IC50 L-O2: No
other
  melting point: 73 to 75 °C

## COc1cc2c(cc1OCCCCCCn1ccc(=O)n(CCCCCCOc3cc4c(cc3OC)[C@H]3CC[C@]5(C)[C@@H](O)CC[C@H]5[C@@H]3CC4)c1=O)CC[C@@H]1[C@@H]2CC[C@]2(C)[C@@H](O)CC[C@@H]12 [Compound 20b, 1,3-Bis-{6-[2-Methoxy-17β-Hydroxy-Estra-1,3,5(10)-Triene-3-yl-Oxy]-Hexyl}-Uracil]
[1]; [5]
  IC50: > 100 µM
[1]; [6]
  IC50: > 100 µM
[1]; [7]
  IC50: > 100 µM
[2]; Homo sapiens, MDA-MB-231, 72 h
  IC50: > 100 µM
[3]; 72 h
  IC50 L-O2: No
other
  melting point: 93 to 94 °C

## COc1cc2c(cc1O)CC[C@@H]1[C@@H]2CC[C@]2(C)[C@@H](O)CC[C@@H]12 [Compound 1, 2-Methoxyestradiol]
[1]; [5]
  IC50: 1.51 ± 0.04 µM
[1]; [6]
  IC50: 1.51 ± 0.04 µM
[1]; [7]
  IC50: 1.51 µM
[2]; Homo sapiens, MDA-MB-231, 72 h
  IC50: 1.86 ± 0.02 µM
[3]; Homo sapiens, L02, 72 h
  IC50: 4.7 ± 0.45 µM

## 3-[8-(Uracil-3-yl)-Octyloxy]-2-Methoxy-Estra-1,3,5(10)-Triene-17β-ol [Compound 22a]
[1]; [8]
  IC50: 10.3 ± 0.37 µM
[1]; [9]
  IC50: 10.3 ± 0.37 µM
[1]; pIC50 = −log(IC50)
  pIC50 for MCF-7: 4.99
[2]; 72 h
  IC50: 9.58 ± 0.98 µM
[3]; 72 h
  IC50: 25.9 ± 1.82 µM

## COc1cc2c(cc1O)CC[C@@H]1[C@@H]2CC[C@]2(C)[C@@H](OCCCCCCCCn3ccc(=O)n(CCCCCCCCO[C@H]4CC[C@H]5[C@@H]6CCc7cc(O)c(OC)cc7[C@H]6CC[C@]45C)c3=O)CC[C@@H]12 [Compound 14b, 1,3-Bis-{8-[2-Methoxy-3-Hydroxy-Estra-1,3,5(10)-Triene-17β-yl-Oxy]-Octyl}-Uracil]
[1]; [5]
  IC50: > 100 µM
[1]; [6]
  IC50: > 100 µM
[1]; [7]
  IC50: > 100 µM
[2]; Homo sapiens, MDA-MB-231, 72 h
  IC50: > 100 µM
[3]; 72 h
  IC50 L-O2: No
other
  melting point: 73 to 75 °C

## COc1cc2c(cc1O)CC[C@@H]1[C@@H]2CC[C@]2(C)[C@@H](OCCCCCCn3ccc(=O)n(CCCCCCO[C@H]4CC[C@H]5[C@@H]6CCc7cc(O)c(OC)cc7[C@H]6CC[C@]45C)c3=O)CC[C@@H]12 [Compound 12b, 1,3-bis-{6-[2-Methoxy-3-Hydroxy-Estra-1,3,5(10)-Triene-17β-yl-oxy]-Hexyl}-Uracil]
[1]; [5]
  IC50: > 100 µM
[1]; [6]
  IC50: > 100 µM
[1]; [7]
  IC50: > 100 µM
[2]; Homo sapiens, MDA-MB-231, 72 h
  IC50: > 100 µM
[3]; 72 h
  IC50 L-O2: No ^b
other
  melting point: 71 to 73 °C

## COc1cc2c(cc1O)CC[C@@H]1[C@@H]2CC[C@]2(C)[C@@H](OCCCCCCn3cc(C)c(=O)n(CCCCCCO[C@H]4CC[C@H]5[C@@H]6CCc7cc(O)c(OC)cc7[C@H]6CC[C@]45C)c3=O)CC[C@@H]12 [Compound 13b, 1,3-Bis-{6-[2-Methoxy-3-Hydroxy-Estra-1,3,5(10)-Triene-17β-yl-oxy]-Hexyl}-5-Methyl-Uracil]
[1]; [5]
  IC50: > 100 µM
[1]; [6]
  IC50: > 100 µM
[1]; [7]
  IC50: > 100 µM
[2]; Homo sapiens, MDA-MB-231, 72 h
  IC50: > 100 µM
[3]; 72 h
  IC50 L-O2: No
other
  melting point: 84 to 86 °C
